In patent US20170121344A1 (Siga Technologies, Inc., priority 2009, published 2017):
Read-outs that look alike come from different tables or passages of the source.

How the values were obtained:
DENV-1 = test: Viral yield assay against DENV-1 in Vero cells; format: cell-based; details: Dengue virus
Outline: (§1)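 Vero cells were infected with dengue-2 at MOI 0.1, treated with compound (DMSO control), and kept at 37° C. They were harvested 48 hours post infection and yield was titered on Vero cells. EC50 came from the yield curve, and the other serotypes were run in a similar way.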

DENV-4 = test: Viral yield assay against DENV-4 in Vero cells; format: cell-based; details: Dengue virus
Outline: as §1

DENV-3 = test: Viral yield assay against DENV-3 in Vero cells; format: cell-based; details: Dengue virus
Outline: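 Yield reduction, Vero; MOI 0.1; compound vs DMSO; 37° C; harvest 48 h p.i.; titer on Vero; EC50 fitted. Other serotypes run the same way.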

[1] = tested on: Dengue-2 (Strain New Guinea C); test: Viral yield assay against Dengue-2 in Vero cells; format: cell-based, Dengue virus; details: Dengue virus, read-out: Activity (EC50 in μM) DENV-2
Outline: as §1

[2] = DENV2, viral yield assay, Vero cells, MOI 0.1, 48 hours post infection

Structure (SMILES)	EC50 (DENV-1; DENV1, viral yield assay) [µM]	EC50 (DENV-4; DENV4, viral yield assay) [µM]	EC50 (DENV-3; DENV3, viral yield assay) [µM]	EC50 [1, 2] [µM]	EC50 ([1]; DENV2, Vero, 48 h) [µM]	EC50 (DENV-1; DENV1) [µM]	EC50 (DENV-4; DENV4) [µM]	EC50 (DENV-3; DENV3) [µM]	EC50 ([1]; DENV2, Vero cells) [µM]
Nc1c(C(=O)Nc2cc(Cl)ccc2Cl)sc2nc(-c3cccs3)ccc12 [Compound 433, 3-amino-N-(2,5-dichlorophenyl)-6-(2-thienyl)thieno[2,3-b]pyridine-2-carboxamide]	< 5	< 5	< 5	< 5	–	–	–	–	–
COc1ccc(OC)c(NC(=O)c2sc3nc(-c4cccs4)ccc3c2N)c1 [Compound 441, 3-amino-N-(2,5-dimethoxyphenyl)-6-(2-thienyl)thieno[2,3-b]pyridine-2-carboxamide]	< 5	< 5	< 5	–	< 5	–	–	–	–
Nc1c(C(=O)Nc2cccc(Cl)c2Cl)sc2nc(-c3ccc(Cl)cc3)ccc12 [Compound 343, 3-amino-6-(4-chlorophenyl)-N-(2,3-dichloro-phenyl)thieno [2,3-b]pyridine-2-carboxamide]	< 5	< 5	< 5	< 5	–	–	–	–	–
Nc1c(C(=O)Nc2ccc3c(c2)OCCO3)sc2nc(-c3cccs3)ccc12 [Compound 415, 3-amino-N-(2,3-dihydro-1,4-benzodioxin-6-yl)-6-(2-thienyl)thieno[2,3-b] pyridine-2-carboxamide]	< 5	< 5	< 5	< 5	–	–	–	–	–
Nc1c(C(=O)Nc2ccccc2Br)sc2nc(-c3ccc(Cl)cc3)ccc12 [Compound 341, 3-amino-N-(2-bromophenyl)-6-(4-chlorophenyl) thieno[2,3-b] pyridine-2-carboxamide]	< 5	< 5	< 5	< 5	–	–	–	–	–
COc1ccc(NC(=O)c2sc3nc(-c4cccs4)ccc3c2N)cc1 [Compound 427, 3-amino-N-(4-methoxyphenyl)-6-(2-thienyl)thieno[2,3-b]pyridine-2-carboxamide]	< 5	< 5	< 5	< 5	–	–	–	–	–
Nc1c(C(=O)Nc2ccc(OC(F)(F)F)cc2)sc2nc3c(cc12)CCCCC3 [Compound 369, 3-amino-N-(4-(trifluroomethoxy)phenyl)-6,7,8,9-tetrahydro-5H-cyclohepta[b]thieno [3,2-e]pyridine-2-carboxamide]	5 to 25	< 5	< 5	< 5	–	–	–	–	–
Nc1c(C(=O)Nc2cccc(Cl)c2)sc2nc(-c3cccs3)ccc12 [Compound 445, 3-amino-N-(3-chlorophenyl)-6-(2-thienyl)thieno[2,3-b]pyridine-2-carboxamide]	< 5	< 5	< 5	< 5	–	–	–	–	–
COc1cccc(-c2ccc3c(N)c(C(=O)Nc4ccc(OC)cc4OC)sc3n2)c1 [Compound 512, 3-amino-N-(2,4-dimethoxyphenyl)-6-(3-methoxyphenyl)thieno[2,3-b]pyridine-2-carboxamide]	< 5	< 5	< 5	< 5	–	–	–	–	–
Nc1c(C(=O)Nc2ccc(Cl)nc2)sc2nc(-c3ccc(Cl)cc3)ccc12 [Compound 353, 3-amino-6-(4-chlorophenyl)-N-(6-chloro-3-pyridyl)thieno [2,3-b]pyridine-2-carboxamide]	< 5	< 5	< 5	< 5	–	–	–	–	–
Nc1c(C(=O)Nc2ccc(Br)nc2)sc2nc(-c3ccc(Cl)cc3)ccc12 [Compound 336, 3-amino-N-(6-bromo-3-pyridyl)-6-(4-chlorophenyl)thieno [2,3-b]pyridine-2-carboxamide]	< 5	< 5	< 5	< 5	–	–	–	–	–
CCOC(=O)c1ccc(NC(=O)c2sc3nc(-c4ccc(C)cc4)ccc3c2N)cc1 [Compound 638, ethyl 4-[[3-amino-6-(p-tolyl)thieno [2,3-b]pyridine-2-carbonyl]amino] benzoate]	< 5	< 5	< 5	< 5	–	–	–	–	–
Nc1c(C(=O)Nc2ccc(Cl)cc2)sc2nc(-c3ccc(F)cc3)ccc12 [Compound 620, 3-amino-N-(4-chlorophenyl)-6-(4-fluorophenyl)thieno[2,3-b]pyridine-2-carboxamide]	< 5	< 5	< 5	< 5	–	–	–	–	–
C=CCSc1ccc(NC(=O)c2sc3nc(-c4cccc(OC)c4)ccc3c2N)cc1 [Compound 542, N-(4-allylsulfanylphenyl)-3-amino-6-(3-methoxyphenyl)thieno[2,3-b]pyridine-2-carboxamide]	< 5	< 5	< 5	< 5	–	–	–	–	–
Nc1c(C(=O)Nc2cccc(Cl)c2Cl)sc2nc(-c3cccs3)ccc12 [Compound 434, 3-amino-N-(2,3-dichlorophenyl)-6-(2-thienyl)thieno[2,3-b]pyridine-2-carboxamide]	< 5	< 5	< 5	< 5	–	–	–	–	–
Nc1c(C(=O)N(c2ccccc2)c2ccccc2)sc2nc3c(cc12)CCCCC3 [Compound 373, 3-amino-N,N-diphenyl-6,7,8,9-tetrahydro-5H-cyclohepta[b]thieno[3,2-e]pyridine-2-carboxamide]	< 5	< 5	< 5	< 5	–	–	–	–	–
Nc1c(C(=O)Nc2nnc(-c3ccccc3)s2)sc2nc3c(cc12)C(O)CCCC3 (centres unmarked) [Compound 329]	< 5	< 5	5 to 25	< 5	–	–	–	–	–
CC(F)(F)c1ccc(NC(=O)c2sc3nc(-c4ccc(Cl)cc4)ccc3c2N)cc1 [Compound 338, 3-amino-6-(4-chlorophenyl)-N-[4-(1,1-difluoro-ethyl)phenyl] thieno[2,3-b] pyridine-2-carboxamide]	< 5	< 5	< 5	< 5	–	–	–	–	–
Cc1ccnc2sc(C(=O)Nc3nnc(-c4ccccc4)s3)c(N)c12 [Compound 288, 3-amino-4-methyl-N-(5-phenyl-1,3,4-thiadiazol-2-yl)thieno[2,3-b]pyridine-2-carboxamide]	< 5	< 5	5 to 25	< 5	–	–	–	–	–
CCOC(=O)CCC(=O)Nc1c(C(=O)Nc2cccc(C(F)(F)F)c2)sc2nc(-c3cccs3)ccc12 [Compound 310, Ethyl 4-oxo-4-[[6-(2-thienyl)-2-[[3-(trifluoromethyl)phenyl]carbamoyl]thieno[2,3-b]pyridin-3-yl]amino]butanoate]	–	–	–	–	–	< 5	< 5	< 5	< 5
CNCC(=O)Nc1c(C(=O)Nc2cccc(C(F)(F)F)c2)sc2nc(-c3cccs3)ccc12 [Compound 307, 3-[[2-(methylamino)acetyl]amino]-6-(2-thienyl)-N-[3-(trifluoromethyl)phenyl]thieno[2,3-b]pyridine-2-carboxamide]	–	–	–	–	–	< 5	< 5	< 5	< 5
Nc1c(C(=O)Nc2ccc(Cl)c(Cl)c2)sc2nc(-c3ccc(Cl)cc3)ccc12 [Compound 342, 3-amino-6-(4-chlorophenyl)-N-(3,4-dichloro-phenyl)thieno [2,3-b]pyridine-2-carboxamide]	< 5	< 5	< 5	< 5	–	–	–	–	–
COc1ccc(-c2ccc3c(N)c(C(=O)Nc4cccc(C(F)(F)F)c4)sc3n2)cc1OC [Compound 476, 3-amino-6-(3,4-dimethoxyphenyl)-N-[3-(trifluoromethyl)phenyl]thieno[2,3-b] pyridine-2-carboxamide]	< 5	< 5	< 5	< 5	–	–	–	–	–
Nc1c(C(=O)/N=c2\[nH]c3ccccc3s2)sc2nc(-c3cccs3)ccc12 [Compound 486, (NE)-3-amino-N-(3H-1,3-benzo-thiazol-2-ylidene)-6-(2-thienyl)thieno [2,3-b]pyridine-2-carboxamide]	< 5	< 5	< 5	–	< 5	–	–	–	–
COc1cccc(-c2ccc3c(N)c(C(=O)Nc4cc(Cl)ccc4Cl)sc3n2)c1 [Compound 495, 3-amino-N-(2,5-dichlorophenyl)-6-(3-methoxyphenyl)thieno[2,3-b]pyridine-2-carboxamide]	< 5	< 5	< 5	< 5	–	–	–	–	–
CN(C)CC(=O)Nc1c(C(=O)Nc2ccc(OC(F)(F)F)cc2)sc2nc3c(cc12)CN(C)CC3 [Compound 312, 3-[[2-(dimethylamino)acetyl]amino]-6-methyl-N-[4-(trifluoromethoxy)phenyl]-7,8-dihydro-5H-thieno[2,3-b][1,6]naphthyridine-2-carboxamide]	–	–	–	–	–	< 5	< 5	< 5	< 5
Cc1ccc(NC(=O)c2sc3nc(-c4ccc(C)cc4)ccc3c2N)cc1 [Compound 636, 3-amino-N,6-bis(p-tolyl)thieno[2,3-b] pyridine-2-carboxamide]	< 5	< 5	< 5	< 5	–	–	–	–	–
NCCNc1c(C(=O)Nc2nnc(-c3ccccc3)s2)sc2nc(Cl)ccc12 [Compound 300, 3-(2-aminoethylamino)-6-chloro-N-(5-phenyl-1,3,4-thiadiazol-2-yl)thieno[2,3-b]pyridine-2-carboxamide]	–	–	–	–	–	< 5	< 5	< 5	< 5
Nc1c(C(=O)Nc2ccc(F)c(F)c2)sc2nc(-c3cccs3)ccc12 [Compound 461, 3-amino-N-(3,4-difluorophenyl)-6-(2-thienyl)thieno[2,3-b]pyridine-2-carboxamide]	< 5	< 5	< 5	< 5	–	–	–	–	–
